Results taken from patent US11306063B2, “Heterocyclic naphthoquinones derivatives for use in the treatment of cancers including Cushing disease” (Commissariat a l'Energie Atomique et aux Energies …, priority 2016, dated 2022).
Where two headings read alike, the source gives them in different places.

Experiments:
MESSA DX5 cells = assay: Cytotoxicity assay (PrestoBlue cell viability), MESSA DX5; assay type: cell-based, human; conditions: for EC50: Homo sapiens, MES-SA/Dx5, 48 hours treatment, chemoresistant line
Procedure: (§1) Messa, Messa DX5, HCT116, HEK-293, PC-3, LNCaP, HCC827 and H1975 cell lines are issued from the American Type Culture Collection (ATCC).
(§2) Messa, Messa DX5 and HCT116 were maintained in McCoy's supplemented with 10% fetal bovine serum, and 1% penicillin/streptomycin. PC-3, LNCaP cells were maintained in RPMI medium supplemented with 10% fetal bovine serum, and 1% penicilin/streptomycin and in the case of Messa DX5: 500 nM Doxorubicin was added to maintain selection pressure. HEK293 were maintained in DMEM medium supplemented with 10% fetal bovine serum, and 1% penicillin/streptomycin. Cells were maintained at 37° C. with 5% CO2, 95% air, and humid atmosphere. In the case of hormonal dependent LNCaP cells, 2 μM DiHydroTestosterone (DHT) was added or not—depending on the type of biological assay—for the same incubation period as compounds.
(§3) For cytotoxicity assays, cells were seeded in 96-well microplates 24 hours before the addition of increasing concentrations of each compound in the culture medium. Cell viability was analyzed 48 hours following addition of each compound through the monitoring of mitochondrial […] activity using PrestoBlue® Cell Viability Reagent (Invitrogen; #A-13261). Paclitaxel was used as a control which is cytotoxic on various cancerous cells although not on chemoresistant MESSA DX5 lineage.

[1] = target: T1, USP8^CD (purified catalytic domain of USP8) (Homo sapiens, UniProt P40818); assay: Inhibition of purified USP8^CD enzymatic activity (Ub-AMC or Ub-Rho substrate); assay type: biochemical; conditions: for inhibition at 0.1 µM: 0.1 μM compound; for inhibition at 0.5 µM: 0.5 μM compound; for inhibition at 1 µM: 1 μM compound; for inhibition of USP8^CD catalytic activity (IC50 range, FIG. 1): Ub-Rho substrate (0.1 μM); for inhibition at 0.01 µM: 0.01 μM compound; for inhibition at 0.05 µM: 0.05 μM compound; for inhibition at 5 µM: 5 μM compound; for inhibition at 10 µM: 10 μM compound; for inhibition at 25 µM: 25 μM compound; for inhibition at 50 µM: 50 μM compound
T1 construct: the purified catalytic domain of USP8 (USP8^CD, in-house purified); made in house; host or cells: E. coli BL21 Gold
T1 sequence (P40818 777-1109 limits assumed): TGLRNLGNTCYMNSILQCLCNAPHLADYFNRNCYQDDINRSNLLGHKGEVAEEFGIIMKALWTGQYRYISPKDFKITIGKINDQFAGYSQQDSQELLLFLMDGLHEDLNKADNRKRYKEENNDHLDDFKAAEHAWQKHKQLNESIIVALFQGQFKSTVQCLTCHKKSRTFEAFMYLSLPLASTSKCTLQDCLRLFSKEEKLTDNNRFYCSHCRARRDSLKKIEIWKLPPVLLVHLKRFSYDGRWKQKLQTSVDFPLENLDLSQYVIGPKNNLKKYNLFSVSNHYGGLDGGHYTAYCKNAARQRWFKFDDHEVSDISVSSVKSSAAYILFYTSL
Procedure, shortened: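 His-tagged catalytic domain expressed in E. coli and purified by Ni affinity and gel filtration. Assayed in 50 mM HEPES pH 7.6 or 40 mM Tris pH 7.4 buffer with 1 mM DTT; compound added just before Ub-AMC or Ub-Rho substrate, fluorescence kinetics followed 20 or 30 min. Median of duplicates.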

LNCaP cells = assay: Cytotoxicity assay (PrestoBlue cell viability), LNCaP; assay type: cell-based; conditions: Homo sapiens, 48 hours treatment
Procedure: as §1, §2, §3

MESSA cells = assay: Cytotoxicity assay (PrestoBlue cell viability), MESSA; assay type: cell-based; conditions: Homo sapiens, MES-SA; 48 hours treatment; concentration inducing 50% cell mortality
Procedure: as §1, §2, §3

PC-3 cells = assay: Cytotoxicity assay (PrestoBlue cell viability), PC-3; assay type: cell-based; conditions: Homo sapiens, 48 hours treatment
Procedure: as §1, §2, §3

[2] = tested on: LNCaP prostatic cancer cells; assay: Cell growth inhibition and cell death induction (Incucyte), LNCaP; assay type: cell-based, human; conditions: 48 hours, FIG. 12E,F
Source text: FIG. 12: The cell growth inhibition and cell death induction of non-small cell lung cancers (NSCLC), HCC827 cells and derivative Gefitinib-resistant clone H1975 (FIG. 12 A,B) and of PC-3 (FIG. 12 C,D) and LnCAP (FIG. 12 E,F) were monitored using Incucyte microscope. Histogram represent in A,C,E: the final cell area relative to the total well area in (%) and in B,D,F: the fluorescent area in μm2. Error bars indicate standard deviation between 6 technical replicates.
The cell growth inhibition and cell death induction of non-small cell lung cancers (NSCLC), HCC827 cells and derivative Gefitinib-resistant clone H1975 were monitored during a period of 72 hours using Incucyte microscope and dedicated programs allowing to monitor cell confluency (i.e.: cell surface area relative to total well surface) and cell death induction by adding Propidium Iodide (PI) at 1 μg/ml (Sigma Aldrich #P4864) in the culture medium.

HEK293 cells = assay: Cytotoxicity assay (PrestoBlue cell viability), HEK293; assay type: cell-based; conditions: Homo sapiens, 48 hours treatment
Procedure: as §1, §2, §3

H1975 cells = assay: Cytotoxicity assay (PrestoBlue cell viability), H1975; assay type: cell-based, human
Procedure: as §1, §3

[3] = Ub-AMC substrate at 1 μM, Table 2b, read-out: IC50 USP8 CD
[4] = Ub-Rhodamine substrate at 0.1 μM, Table 2c, read-out: IC50 USP8 CD

CCCCS(=O)(=O)Cc1nc2c(o1)C(=O)c1ccccc1C2=O [PCR9301]
sensitivity of chemo-resistant MESSA-DX5 compared with nonresistant MESSA cell line (MESSA DX5 cells): equally sensitive | EC50 (MESSA DX5 cells): 1800 nM | inhibition at 0.1 µM ([1]; Table 3a): 53% | inhibition at 0.5 µM ([1]; Table 3a): 81% | inhibition at 1 µM ([1]; Table 3a): 107% | inhibition of USP8^CD catalytic activity (IC50 range, FIG. 1) [1]: in the nanomolar range | IC50 ([1]; Ub-Rho substrate, Table 3b, read-out: IC50 against purified USP8^CD): 80 nM | EC50 (LNCaP cells): 1300 nM | EC50 (MESSA cells): 1300 nM | EC50 (PC-3 cells): 1000 nM

O=C1c2ccccc2C(=O)c2nc(CS(=O)(=O)c3ccccc3F)c(CS(=O)(=O)c3ccccc3F)nc21 [OVM24]
cell growth inhibition and cell death induction, LNCaP [2]: inhibit cell growth and induce cell death in a dose dependent manner | EC50 (MESSA DX5 cells): 800 nM | inhibition at 0.01 µM ([1]; Table 1d): -25% | inhibition at 0.05 µM ([1]; Table 1d): 3% | inhibition at 0.1 µM ([1]; Table 1d): 7% | inhibition at 0.5 µM ([1]; Table 1d): 65% | inhibition at 1 µM ([1]; Table 1b): 64% | inhibition at 1 µM ([1]; Table 1d): 74% | inhibition at 5 µM ([1]; Table 1b): 103% | inhibition at 5 µM ([1]; Table 1d): 78% | inhibition at 10 µM ([1]; Table 1d): 97% | inhibition at 25 µM ([1]; Table 1b): 115% | inhibition at 50 µM ([1]; Table 1b): 103% | IC50 [1, 3]: 400 nM | IC50 [1, 4]: 2300 nM | EC50 (HEK293 cells): 2500 nM | EC50 (LNCaP cells): 1300 nM | EC50 (MESSA cells): 700 nM | EC50 (H1975 cells; Homo sapiens, NCI-H1975, 48 h): 2000 nM | EC50 (PC-3 cells): 2500 nM

CCCCS(=O)(=O)Cc1nc2c(nc1CS(=O)(=O)CCCC)C(=O)c1ccccc1C2=O [PCR6236]
cell growth inhibition and cell death induction, LNCaP [2]: inhibit cell growth and induce cell death in a dose dependent manner | sensitivity of chemo-resistant MESSA-DX5 compared with nonresistant MESSA cell line (MESSA DX5 cells): equally sensitive | EC50 (MESSA DX5 cells): 3500 nM | IC50 [1]: 60 nM | inhibition of USP8^CD catalytic activity (IC50 range, FIG. 1) [1]: in the nanomolar range | EC50 (HEK293 cells): 1400 nM | EC50 (LNCaP cells): 2000 nM | EC50 (MESSA cells): 2000 nM | EC50 (H1975 cells; 48 hours treatment, Gefitinib resistant cells): 3000 nM | EC50 (H1975 cells; Homo sapiens, NCI-H1975, 48 h, 48 hours treatment, Gefitinib resistant cells): ≤ 3000 nM | EC50 (PC-3 cells): 800 nM

CCCS(=O)(=O)Cc1nc2c(nc1CS(=O)(=O)CCC)C(=O)c1ccccc1C2=O [VIN6074]
cell growth inhibition and cell death induction, LNCaP [2]: inhibit cell growth and induce cell death in a dose dependent manner | EC50 (MESSA DX5 cells): 3500 nM | inhibition at 0.01 µM ([1]; Table 1d): -17% | inhibition at 0.05 µM ([1]; Table 1d): 16% | inhibition at 0.1 µM ([1]; Table 1d): 0% | inhibition at 0.5 µM ([1]; Table 1d): 67% | inhibition at 1 µM ([1]; Table 1b): 93% | inhibition at 1 µM ([1]; Table 1d): 93% | inhibition at 5 µM ([1]; Table 1b): 98% | inhibition at 5 µM ([1]; Table 1d): 103% | inhibition at 10 µM ([1]; Table 1d): 99% | inhibition at 25 µM ([1]; Table 1b): 100% | inhibition at 50 µM ([1]; Table 1b): 107% | IC50 [1, 3]: 300 nM | IC50 [1, 4]: 40 nM | EC50 (HEK293 cells): 1500 nM | EC50 (LNCaP cells): 1900 nM | EC50 (MESSA cells): 2700 nM | EC50 (H1975 cells; Homo sapiens, NCI-H1975, 48 h): 2000 nM | EC50 (PC-3 cells): 2300 nM
